From patent US10925854B2, “Methods and compositions for preventing or treating fatty liver, protecting liver function or ameliorating liver diseases caused by fatty liver or other associated disorders” (SINEW PHARMA INC., priority 2015, dated 2021)
Where two headings read alike, the source gives them in different places.

Columns and labels:
[1] = tested on: HepG2 fatty liver cells (induced with oleic acid); experiment: Reduction of TG content in oleic acid-induced HepG2 fatty liver cells; format: cell-based, human; details: for inhibition at 1 µM: Homo sapiens, read-out: TG reduction rate
Method: The activity of the various compounds of the present invention in reduction of fat content was analyzed by using human hepatoma cell line Hep G2.
HepG2 cell lines (15×10^6 cells) were cultured in DMEM culture No. B, incubated in an incubator with 5% CO2 at 37° C. for 24 hours, cultured in DMEM culture No. C (serum-free medium) for 24 hours, and finally cultured in DMEM culture No. D (containing oleate/albumin complex) for another 48 hours to induce HepG2 cell lines to form fatty liver cells.
HepG2 cell lines were divided into six groups, including: (1) Blank: no treatment; (2) DMSO group: cells from Blank were treated with dimethyl sulfoxide (DMSO); (3) Control: induction with oleic acid to form fatty liver cells; (4) Vehicle group: fatty liver cells formed by induction with oleic acid were treated with DMSO; (5) Positive control: fatty liver cells were treated with silymarin; and (6) Test Group: fatty liver cells were treated with various compounds of the present invention.
After incubation for 72 hours, the treated cells from each group were successively washed twice with PBS, and then incubated with 0.5 ml of trypsin/EDTA for 3 minutes. Afterwards, the cells were scraped with 2 ml of PBS and then transferred to the centrifuge tube to be shattered by ultrasonic. 20 μl of the cell extracts was taken to determine the content of protein. TG determination was performed using commercially available combination of agents (Randox). The TG content obtained above was divided by the protein content to obtain a ratio, representing a relative TG content in the cells.
The equation for calculating reduction rate (%) of TG was as follows: [1−(TG content of Test Group−TG content of Blank)/(TG content of Oleic acid induction Group−TG content of Blank)]×100%.

[2] = tested on: B6 mice fed with high fat feed (fatty liver); experiment: Liver lipids (TG, TC in liver) in mice with induced fatty liver; format: in vivo
Method: (§1) B6 mice recommended in the specification “Method for evaluating the liver protection and health care efficacies of health food” announced by the Department of Health were chosen for animal testing. More than four (4) mice were used in each group of the pre-test, while more than twelve (12) mice were used in each group of the confirmatory test. Male mice bred at 23±2° C. in an animal room with 55±15% relative humidity under normal light/dark cycle (7:00 AM-7:00 PM lights on/7:00 PM-7:00 AM lights off) and weighing 18-23 g were purchased from BioLASCO (Taipei) and housed at Laboratory Animal Center in National Defense Medical Center. The animal test was carried out according to the guideline for animal experiment of National Health Research Institutes. Mice were fed with normal feed at 3-5 g/day and unlimited supply of water for 1-2 weeks and investigated for health condition. The weight of mice was recorded once a week.
(§2) The tested animals were grouped randomly into Blank, High Fat Diet control (HFD), Positive Control (PS), and Test group. The animals of Blank were fed with normal feed. The animals of HFD were fed with high fat feed. The animals of PS were fed with high fat feed, and additionally fed with silymarin (5 mg/kg/day) by a tube. The animals of Test group were fed with high fat feed, and additionally force-fed with test compounds by a tube.
(§3) The animals of Blank were fed casually with normal feed for 12 weeks, while the animals of HFD, PS, and Test group were fed casually with high fat feed for 12 weeks. After 8 weeks of feeding, the animals of Blank and HFD were fed with deionized water by a tube once a day; the animals of PS were fed with silymarin by a tube once a day; and the animals of Test Group were fed with test compounds by a tube once a day for a duration of 4 or 8 weeks.
In addition, abdominal fat and liver specimens were taken from the abdomens of sacrificed mice and weighted to compare the weight of fat and liver and obtain a ratio of liver weight to body weight. Two tissue blocks with a volume of approximately 1 cm^3 were cut from the largest right lobe of liver, fixed in 10% neutral formalin solution, and then embedded with paraffin for sectioning and H&E staining for histopathological observation. Moreover, the rest of the liver was frozen for preservation and detection of the contents of triglyceride and total cholesterol in the liver. Furthermore, the liver function of animals of each group were analyzed by Galactose Single Point Method, which was recognized and recommended for quantification of remaining liver function in clinical use by U.S. FDA and Ministry of Health and Welfare, Taiwan. At the end of the tests, 0.5 g of galactose (G.S.P.® 0.4 g/mL) per kg of animal was administered via intravenous. One hour after the administration, about 0.5 ml of whole blood was taken by using a filter paper to evaluate liver function of mice. The higher the value of GSP was, the worse the remaining liver function would be (FDA: “Guidance for Industry: Pharmacokinetics in Patients with Impaired. Hepatic Function—Study Design, Data Analysis and Impact on Dosing and. Labeling. 2003).

[3] = tested on: B6 mice fed with high fat feed (fatty liver); experiment: Serum ALT and AST (liver dysfunction) in mice with induced fatty liver; format: in vivo
Method: as §1, §2, §3
Before testing and in the eighth (8th), twelfth (12th), and sixteenth (16th) week after testing, blood was collected from the cheek or the heart. At the end of testing, all mice were weighted and then sacrificed, and blood was collected from the cheek or the heart simultaneously. The blood specimens of mice was placed at room temperature for one hour to clot, and then the serum was separated by centrifugation in a refrigeration centrifuge at 15,700×g at 4° C. for 5 minutes. Afterwards, biochemical indices of liver function, including aspartate transaminase (AST), alanine aminotransferase (ALT), triglyceride (TG), total cholesterol (TCHO/TC), low-density lipoprotein cholesterol (LDL-C), and high-density lipoprotein cholesterol (HDL-C), were detected by the automatic blood biochemistry analyzer.

[4] = tested on: B6 mice fed with high fat feed (fatty liver); experiment: Liver antioxidant capacity (Gpx, GSH, Grd, SOD) in mice with induced fatty liver; format: in vivo; details: fatty liver mice
Method: as §1, §2, §3
About 0.1 g of liver tissue was taken from the sacrificed animal and homogenized by centrifuge with a biomasher for 10 minutes. A 9-fold weight (w/w) of buffer (pH 7.4, 50 mmol/L Tris-HCl, 180 mmol/L KCl) was added to the homogenized tissue, which was then mixed well by a Vortex mixer for subsequent use. The resulting homogenization solution samples of liver tissue was used for the analysis of various members of liver antioxidant systems, including glutathione peroxidase (GPx), glutathione (GSH), glutathione reductase (Grd), and superoxide dismutase (SOD). Methods of related analysis can be found in the known literatures, for example, the draft of “Method for evaluating the liver protection and health care efficacies of health food” announced by the Ministry of Health and Welfare, Taiwan.

[5] = 72 h, tested substances 1.0 uM, fatty liver cells from HepG2

Row | Molecule | inhibition at 1 µM [1, 5] | other results
1 | O=C1c2c(O)cc(O)cc2O[C@H](c2ccc(O)c(O)c2)[C@H]1O [(+)-taxifolin] | 17.9 ± 8.35% | 
2 | O=c1cc(-c2ccccc2)oc2cc(O)c(O)c(O)c12 [baicalein] | 7.09 ± 10.9% | 
3 | O=C(O)[C@H]1O[C@@H](Oc2cc3oc(-c4ccccc4)cc(=O)c3c(O)c2O)[C@H](O)[C@@H](O)[C@@H]1O [baicalin] | 9.21 ± 6.21% | 
4 | O=C(O)CC(O)(CC(=O)O)C(=O)O [citric acid] | 2.55 ± 4.43% | 
5 | O=c1c(-c2ccc(O)cc2)coc2cc(O)ccc12 [daidzein] | 42.3 ± 5.34% | 
6 | COc1ccc(-c2cc(=O)c3c(O)cc(O[C@@H]4O[C@H](CO[C@@H]5O[C@@H](C)[C@H](O)[C@@H](O)[C@H]5O)[C@@H](O)[C@H](O)[C@H]4O)cc3o2)cc1O [diosmin] | 11.9 ± 3.73% | 
7 | CC/C=C\C/C=C\C/C=C\C/C=C\C/C=C\CCCC(=O)O [eicosapentaenoic acid (EPA), eicosapentaenoic acid] | 26.1 ± 6.14% | 
8 | CC(C)[C@@H](C)/C=C/[C@@H](C)[C@H]1CC[C@H]2C3=CC=C4C[C@@H](O)CC[C@]4(C)[C@H]3CC[C@]12C [ergosterol] | 34.2 ± 3.69% | 
9 | COc1ccc(-c2coc3cc(O)ccc3c2=O)cc1 [formononetin] | 29.6 ± 1.44% | 
10 | O=c1c(O)c(-c2ccccc2)oc2cc(O)cc(O)c12 [galangin] | 28.1 ± 8.62% | 
11 | OCC(O)CO [glycerrin, glycerin] | 16.2 ± 4.25% | 
12 | CC1(C)[C@@H](O[C@H]2O[C@H](C(=O)O)[C@@H](O)[C@H](O)[C@H]2O[C@@H]2O[C@H](C(=O)O)[C@@H](O)[C@H](O)[C@H]2O)CC[C@]2(C)[C@H]3C(=O)C=C4[C@@H]5C[C@@](C)(C(=O)O)CC[C@]5(C)CC[C@@]4(C)[C@]3(C)CC[C@@H]12 [glycyrrhizin] | 10.6 ± 7.4% | 
13 | COc1ccc([C@@H]2CC(=O)c3c(O)cc(O)cc3O2)cc1O [hesperitin] | 16.1 ± 5.55% | effect on TC in liver (in words) [2]: reduces TC in liver significantly; effect on TG in liver (in words) [2]: reduces TG in liver significantly; effect on ALT and AST values (in words) [3]: can significantly reduce ALT and AST values; effect on liver antioxidant activity (in words) [4]: can significantly enhance antioxidant activity
14 | O=c1c(O[C@@H]2O[C@H](CO)[C@H](O)[C@H](O)[C@H]2O)c(-c2ccc(O)c(O)c2)oc2cc(O)cc(O)c12 [hyperoside] | 30.5 ± 2.8% | 
15 | O=c1cc(-c2ccc(O)cc2)oc2cc(O)c([C@@H]3O[C@H](CO)[C@@H](O)[C@H](O)[C@H]3O)c(O)c12 [isovitexin] | 35.9 ± 3.35% | 
16 | O=c1c(O)c(-c2ccc(O)cc2)oc2cc(O)cc(O)c12 [kaempferol] | 36.5 ± 4.78% | 
17 | O=c1cc(-c2ccc(O)c(O)c2)oc2cc(O)cc(O)c12 [luteolin] | 6.95 ± 15.2% | 
18 | O=c1c(O)c(-c2ccc(O)cc2O)oc2cc(O)cc(O)c12 [morin] | 25.8 ± 10.7% | 
19 | CCCCCCCCCCCCCC(=O)OCC [myristic acid ethyl ester] | 28.9 ± 3.91% | 
20 | C[C@@H]1O[C@@H](O[C@H]2[C@H](Oc3cc(O)c4c(c3)O[C@H](c3ccc(O)cc3)CC4=O)O[C@H](CO)[C@@H](O)[C@@H]2O)[C@H](O)[C@H](O)[C@H]1O [naringin] | 12.7 ± 3.72% | 

Row | Molecule | inhibition at 1 µM [1, 5] | other results
21 | CC(Cc1ccc(O)c(O)c1)C(C)Cc1ccc(O)c(O)c1 (stereo not drawn) [nordihydroguaiaretic acid] | 15.9 ± 2.3% | 
22 | O=C(CCc1ccc(O)cc1)c1c(O)cc(O)cc1O[C@@H]1O[C@H](CO)[C@@H](O)[C@H](O)[C@H]1O [phloridzin] | 42.4 ± 6.05% | 
23 | COc1ccc([C@@H]2CC(=O)c3c(O)cc(O[C@@H]4O[C@H](CO)[C@@H](O)[C@H](O)[C@H]4O[C@@H]4O[C@@H](C)[C@H](O)[C@@H](O)[C@H]4O)cc3O2)cc1 [poncirin] | 38.1 ± 7.22% | 
24 | O=C(O)c1ccc(O)c(O)c1 [protocatechuic acid] |  | inhibition at 1 µM ([1]; HepG2, 72 h): 18.6 ± 7.6%
25 | O=c1c(-c2ccc(O)cc2)coc2c([C@@H]3O[C@H](CO)[C@@H](O)[C@H](O)[C@H]3O)c(O)ccc12 [puerarin] | 49.9 ± 7.73% | effect on TG in liver (in words) [2]: reduces TG in liver significantly; effect on ALT and AST values (in words) [3]: can significantly reduce ALT and AST values; effect on liver antioxidant activity (in words) [4]: can significantly enhance antioxidant activity
26 | C[C@@H]1O[C@@H](Oc2c(-c3ccc(O)c(O)c3)oc3cc(O)cc(O)c3c2=O)[C@H](O)[C@H](O)[C@H]1O [quercitrin] |  | inhibition at 1 µM ([1]; HepG2, 72 h): 9.15 ± 9.24%
27 | O=C1NS(=O)(=O)c2ccccc21 [saccharin] | 17.5 ± 6.96% | effect on TC in liver (in words) [2]: reduces TC in liver significantly; effect on ALT and AST values (in words) [3]: can significantly reduce ALT and AST values
28 | COc1cc(C2Oc3cc([C@H]4Oc5cc(O)cc(O)c5C(=O)[C@@H]4O)ccc3OC2CO)ccc1O (stereo partly drawn) [silybin] | 30.3 ± 3.24% | 
29 | COc1ccc(-c2cc(=O)c3c(OC)c(OC)c(OC)cc3o2)cc1OC [sinensetin] | 37 ± 4.84% | 
30 | CCCCCCCCCCCCOS(=O)(=O)[O-].[Na+] [sodium lauryl sulfate] | 38.7 ± 4.65% | 
31 | C/C=C/C=C/C(=O)O [sorbic acid] | 2.03 ± 1.96% | 
32 | OC[C@@H](O)[C@@H](O)[C@H](O)[C@@H](O)CO [sorbitol] | 20.1 ± 2.57% | 
33 | C=C[C@H]1[C@H](O[C@@H]2O[C@H](CO)[C@@H](O)[C@H](O)[C@H]2O)OC=C2C(=O)OCC[C@]21O [swrtiamarin, swertiamarin] | 6.72 ± 11% | 
34 | O=C(O)/C=C/c1ccccc1 [trans-Cinnamic Acid] | 15.8 ± 0.82% | 
35 | O=c1ccc2ccc(O)cc2o1 [umbelliferone] | 17.4 ± 2.57% | 
36 | C[C@H]1[C@H](C)CC[C@]2(C(=O)O)CC[C@]3(C)C(=CC[C@@H]4[C@@]5(C)CC[C@H](O)C(C)(C)[C@@H]5CC[C@]43C)[C@H]12 [ursolic Acid] | 35.9 ± 8.92% | 
37 | OC[C@@H](O)[C@H](O)[C@@H](O)CO [xylitol] | 7.36 ± 6.34% | 
38 | C=CC(=C)CCC=C(C)C [β-myrcene] | 34 ± 11.2% | 
39 | (−)-epicatechin-3-gallate |  | TG reduction rate ([1]; tested substances 1.0 uM, fatty liver cells from HepG2): 32.7 ± 4.33%
